What was measured:
OVCAR-4 = assay: NCI60 one-dose screen (10 μM), Ovarian Cancer; format: cell-based; conditions: Homo sapiens; 10 μM; OVCAR-4, Ovarian Cancer; read-out: Growth percent rate
UACC-257 = assay: NCI60 one-dose screen (10 μM), Melanoma; format: cell-based; conditions: Homo sapiens; 10 μM; UACC-257, Melanoma; read-out: Growth percent rate
NCI-H460 = assay: NCI60 one-dose screen (10 μM), Non-small Cell Lung Cancer; format: cell-based; conditions: Homo sapiens; 10 μM; NCI-H460, Non-small Cell Lung Cancer; read-out: Growth percent rate
786–0 = assay: NCI60 one-dose screen (10 μM), Renal Cancer; format: cell-based; conditions: Homo sapiens; 10 μM; 786-0, Renal Cancer; read-out: Growth percent rate
MALME-3M = assay: NCI60 one-dose screen (10 μM), Melanoma; format: cell-based; conditions: Homo sapiens; 10 μM; MALME-3M, Melanoma; read-out: Growth percent rate
CAKI-1 = assay: NCI60 one-dose screen (10 μM), Renal Cancer; format: cell-based; conditions: Homo sapiens; 10 μM; CAKI-1, Renal Cancer; read-out: Growth percent rate
DU-145 = assay: NCI60 one-dose screen (10 μM), Prostate Cancer; format: cell-based; conditions: Homo sapiens; 10 μM; DU-145, Prostate Cancer; read-out: Growth percent rate
K-562 = assay: NCI60 one-dose screen (10 μM), Leukemia; format: cell-based; conditions: Homo sapiens, K562; 10 μM; K-562, Leukemia; read-out: Growth percent rate
ACHN = assay: NCI60 one-dose screen (10 μM), Renal Cancer; format: cell-based; conditions: Homo sapiens, 10 μM, Renal Cancer, read-out: Growth percent rate
HL-60(TB) = assay: NCI60 one-dose screen (10 μM), Leukemia; format: cell-based; conditions: Homo sapiens; 10 μM; HL-60(TB), Leukemia; read-out: Growth percent rate
NCI-H23 = assay: NCI60 one-dose screen (10 μM), Non-small Cell Lung Cancer; format: cell-based; conditions: Homo sapiens; 10 μM; NCI-H23, Non-small Cell Lung Cancer; read-out: Growth percent rate
MCF7 = assay: NCI60 one-dose screen (10 μM), Breast Cancer; format: cell-based; conditions: Homo sapiens; 10 μM; MCF7, Breast Cancer; read-out: Growth percent rate
OVCAR-3 = assay: NCI60 one-dose screen (10 μM), Ovarian Cancer; format: cell-based; conditions: Homo sapiens; 10 μM; OVCAR-3, Ovarian Cancer; read-out: Growth percent rate
RPMI-8226 = assay: NCI60 one-dose screen (10 μM), Leukemia; format: cell-based; conditions: Homo sapiens; 10 μM; RPMI-8226, Leukemia; read-out: Growth percent rate
CCRF-CEM = assay: NCI60 one-dose screen (10 μM), Leukemia; format: cell-based; conditions: Homo sapiens, 10 μM, Leukemia, read-out: Growth percent rate
SK-MEL-5 = assay: NCI60 one-dose screen (10 μM), Melanoma; format: cell-based, human; conditions: for activity at 10 µM: Homo sapiens, SK-MEL-5, Melanoma, read-out: Growth percent rate
TK-10 = assay: NCI60 one-dose screen (10 μM), Renal Cancer; format: cell-based; conditions: Homo sapiens; 10 μM; TK-10, Renal Cancer; read-out: Growth percent rate
HCT-116 = assay: NCI60 one-dose screen (10 μM), Colon Cancer; format: cell-based; conditions: Homo sapiens; 10 μM; HCT-116, Colon Cancer; read-out: Growth percent rate
HCC-2998 = assay: NCI60 one-dose screen (10 μM), Colon Cancer; format: cell-based; conditions: Homo sapiens; 10 μM; HCC-2998, Colon Cancer; read-out: Growth percent rate
SK-MEL-28 = assay: NCI60 one-dose screen (10 μM), Melanoma; format: cell-based; conditions: Homo sapiens; 10 μM; SK-MEL-28, Melanoma; read-out: Growth percent rate
U251 = assay: NCI60 one-dose screen (10 μM), CNS Cancer; format: cell-based; conditions: Homo sapiens, U-251; 10 μM; U251, CNS Cancer; read-out: Growth percent rate
HOP-62 = assay: NCI60 one-dose screen (10 μM), Non-small Cell Lung Cancer; format: cell-based; conditions: Homo sapiens; 10 μM; HOP-62, Non-small Cell Lung Cancer; read-out: Growth percent rate
SNB-75 = assay: NCI60 one-dose screen (10 μM), CNS Cancer; format: cell-based, human; conditions: for activity at 10 µM: Homo sapiens, SNB-75, CNS Cancer, read-out: Growth percent rate
SW-620 = assay: NCI60 one-dose screen (10 μM), Colon Cancer; format: cell-based; conditions: Homo sapiens; 10 μM; SW-620, Colon Cancer; read-out: Growth percent rate
SN12C = assay: NCI60 one-dose screen (10 μM), Renal Cancer; format: cell-based; conditions: Homo sapiens, 10 μM, Renal Cancer, read-out: Growth percent rate
SF-295 = assay: NCI60 one-dose screen (10 μM), CNS Cancer; format: cell-based; conditions: Homo sapiens; 10 μM; SF-295, CNS Cancer; read-out: Growth percent rate
A498 = assay: NCI60 one-dose screen (10 μM), Renal Cancer; format: cell-based; conditions: Homo sapiens; 10 μM; A498, Renal Cancer; read-out: Growth percent rate
[1] = system: 60 human tumor cell lines (NCI60); assay: NCI60 one-dose screen (10 μM), whole panel; format: cell-based; conditions: for activity at 10 µM: mean over 60 human cancer cell lines, read-out: Growth percent rate, Mean
NCI-H322M = assay: NCI60 one-dose screen (10 μM), Non-small Cell Lung Cancer; format: cell-based; conditions: Homo sapiens, 10 μM, Non-small Cell Lung Cancer, read-out: Growth percent rate
IGROV1 = assay: NCI60 one-dose screen (10 μM), Ovarian Cancer; format: cell-based; conditions: Homo sapiens, IGROV-1; 10 μM; IGROV1, Ovarian Cancer; read-out: Growth percent rate
MDA-MB-435 = assay: NCI60 one-dose screen (10 μM), Melanoma; format: cell-based; conditions: Homo sapiens; 10 μM; MDA-MB-435, Melanoma; read-out: Growth percent rate
HT29 = assay: NCI60 one-dose screen (10 μM), Colon Cancer; format: cell-based; conditions: Homo sapiens, HT-29; 10 μM; HT29, Colon Cancer; read-out: Growth percent rate
OVCAR-8 = assay: NCI60 one-dose screen (10 μM), Ovarian Cancer; format: cell-based; conditions: Homo sapiens; 10 μM; OVCAR-8, Ovarian Cancer; read-out: Growth percent rate
SNB-19 = assay: NCI60 one-dose screen (10 μM), CNS Cancer; format: cell-based; conditions: Homo sapiens; 10 μM; SNB-19, CNS Cancer; read-out: Growth percent rate
M14 = assay: NCI60 one-dose screen (10 μM), Melanoma; format: cell-based; conditions: Homo sapiens; 10 μM; M14, Melanoma; read-out: Growth percent rate
SF-268 = assay: NCI60 one-dose screen (10 μM), CNS Cancer; format: cell-based; conditions: Homo sapiens; 10 μM; SF-268, CNS Cancer; read-out: Growth percent rate
A549/ATCC = assay: NCI60 one-dose screen (10 μM), Non-small Cell Lung Cancer; format: cell-based; conditions: Homo sapiens; 10 μM; A549/ATCC, Non-small Cell Lung Cancer; read-out: Growth percent rate
MOLT-4 = assay: NCI60 one-dose screen (10 μM), Leukemia; format: cell-based, human; conditions: Homo sapiens; 10 μM; MOLT-4, Leukemia; read-out: Growth percent rate
KM12 = assay: NCI60 one-dose screen (10 μM), Colon Cancer; format: cell-based, human; conditions: for activity at 10 µM: Homo sapiens, KM12, Colon Cancer, read-out: Growth percent rate
NCI-H522 = assay: NCI60 one-dose screen (10 μM), Non-small Cell Lung Cancer; format: cell-based; conditions: Homo sapiens; 10 μM; NCI-H522, Non-small Cell Lung Cancer; read-out: Growth percent rate
SK-MEL-2 = assay: NCI60 one-dose screen (10 μM), Melanoma; format: cell-based; conditions: Homo sapiens; 10 μM; SK-MEL-2, Melanoma; read-out: Growth percent rate
EKVX = assay: NCI60 one-dose screen (10 μM), Non-small Cell Lung Cancer; format: cell-based; conditions: Homo sapiens, 10 μM, Non-small Cell Lung Cancer, read-out: Growth percent rate

## CCC12C=CCN3CCC4(c5cc(NC(=O)CN6CCN(C)CC6)c(OC)cc5N(C)C4C(O)(C(=O)OC)C1OC(C)=O)C32 (stereo not shown) [Compound 16]
OVCAR-4
  activity at 10 µM: 109%
UACC-257
  activity at 10 µM: -7.95%
NCI-H460
  activity at 10 µM: 142%
786–0
  activity at 10 µM: 106%
MALME-3M
  activity at 10 µM: 97.5%
CAKI-1
  activity at 10 µM: 89.5%
DU-145
  activity at 10 µM: 115%
K-562
  activity at 10 µM: 85.8%
ACHN
  activity at 10 µM: 104%
HL-60(TB)
  activity at 10 µM: 97.5%
NCI-H23
  activity at 10 µM: 103%
MCF7
  activity at 10 µM: 84.3%
OVCAR-3
  activity at 10 µM: 138%
RPMI-8226
  activity at 10 µM: 102%
CCRF-CEM
  activity at 10 µM: 112%
SK-MEL-5
  activity at 10 µM: 102%
TK-10
  activity at 10 µM: 103%
HCT-116
  activity at 10 µM: 101%
HCC-2998
  activity at 10 µM: 106%
SK-MEL-28
  activity at 10 µM: 111%
U251
  activity at 10 µM: 97.4%
HOP-62
  activity at 10 µM: 104%
SNB-75
  activity at 10 µM: 95.6%
SW-620
  activity at 10 µM: 124%
SN12C
  activity at 10 µM: 109%
SF-295
  activity at 10 µM: 98.8%
A498
  activity at 10 µM: 158%
[1]
  activity at 10 µM: 103%
NCI-H322M
  activity at 10 µM: 101%
IGROV1
  activity at 10 µM: 112%
MDA-MB-435
  activity at 10 µM: 114%
HT29
  activity at 10 µM: 104%
OVCAR-8
  activity at 10 µM: 97.8%
SNB-19
  activity at 10 µM: 105%
M14
  activity at 10 µM: 101%
SF-268
  activity at 10 µM: 116%
A549/ATCC
  activity at 10 µM: 97.1%
MOLT-4
  activity at 10 µM: 108%
KM12
  activity at 10 µM: 112%
NCI-H522
  activity at 10 µM: 90.2%
SK-MEL-2
  activity at 10 µM: 108%
EKVX
  activity at 10 µM: 94.8%

## CCC12C=CCN3CCC4(c5cc(NC(=O)CN6CCN(c7ccc(C(F)(F)F)cc7)CC6)c(OC)cc5N(C)C4C(O)(C(=O)OC)C1OC(C)=O)C32 (stereo not shown) [Compound 17]
OVCAR-4
  activity at 10 µM: 20.4%
UACC-257
  activity at 10 µM: -65.3%
NCI-H460
  activity at 10 µM: 9.27%
786–0
  activity at 10 µM: 24.8%
MALME-3M
  activity at 10 µM: -89.5%
CAKI-1
  activity at 10 µM: 10.8%
DU-145
  activity at 10 µM: 24.1%
K-562
  activity at 10 µM: 11.4%
ACHN
  activity at 10 µM: 3.15%
HL-60(TB)
  activity at 10 µM: 1.98%
NCI-H23
  activity at 10 µM: 15.2%
MCF7
  activity at 10 µM: 0.95%
OVCAR-3
  activity at 10 µM: -48%
RPMI-8226
  activity at 10 µM: -14.1%
CCRF-CEM
  activity at 10 µM: -7.07%
SK-MEL-5; 10 μM one-dose, SK-MEL-5 melanoma, negative = lethality
  growth percent rate: −98.17%
SK-MEL-5
  activity at 10 µM: -98.2%
TK-10
  activity at 10 µM: 33.4%
HCT-116
  activity at 10 µM: 0.31%
HCC-2998
  activity at 10 µM: -69.9%
SK-MEL-28
  activity at 10 µM: -67.6%
U251
  activity at 10 µM: 7.24%
HOP-62
  activity at 10 µM: -38.8%
SNB-75; 10 μM one-dose, SNB-75 CNS cancer, negative = lethality
  growth percent rate: < −80%
SNB-75
  activity at 10 µM: -87.6%
SW-620
  activity at 10 µM: 1.45%
SN12C
  activity at 10 µM: -17%
SF-295
  activity at 10 µM: -70.2%
A498
  activity at 10 µM: -9.05%
[1]; 10 μM one-dose, NCI60
  antiproliferative effect (in words): highly effective in several types of cancer
[1]
  activity at 10 µM: -24.7%
NCI-H322M
  activity at 10 µM: 39.1%
IGROV1
  activity at 10 µM: 12.7%
MDA-MB-435
  activity at 10 µM: -79.8%
HT29
  activity at 10 µM: -68.8%
OVCAR-8
  activity at 10 µM: 26.3%
SNB-19
  activity at 10 µM: 18.4%
M14
  activity at 10 µM: -31.1%
SF-268
  activity at 10 µM: -6.14%
A549/ATCC
  activity at 10 µM: 20.3%
MOLT-4
  activity at 10 µM: 8.66%
KM12; 10 μM one-dose, KM12 colon cancer, negative = lethality
  growth percent rate: −84.40%
KM12
  activity at 10 µM: -84.4%
NCI-H522
  activity at 10 µM: -24.4%
SK-MEL-2
  activity at 10 µM: -66.2%
EKVX
  activity at 10 µM: 21.3%

— article PMC11277489, “Novel Piperazine Derivatives of Vindoline as Anticancer Agents” (International Journal of Molecular Sciences, 2024)
